Measurements: patent publication US7547726B2, “AI-2 compounds and analogs based on Salmonella typhimurium LsrB structure” (The Trustees of Princeton University, priority 2004, dated 2009)
Where two headings read alike, the source gives them in different places.

Assays:
[1] = system: V. harveyi strain MM32 (LuxN−, LuxS−); type: cell-based; conditions: for light production: ligand approximately 0.2 nM, 8 hr of growth
Description: (§1) V. harveyi strain MM32 (luxN::Cm, luxS::Tn5Kan) was used for bioluminescence assays. This strain was constructed by introducing luxS::Tn5Kan onto the chromosome of strain JAF305 (luxN::Cm) (Bassler et al., 1993; Freeman et al., 1999). S. typhimurium strain MET844 (rpsL, putRA::Kan-lsr-lacZYA, ΔlsrFGE::Cm, luxS::TPOP) was used for lsr-lacZ assays (Taga et al., 2003). V. harveyi was grown in borate-depleted autoinducer bioassay (AB) medium (Greenberg et al., 1979), and S. typhimurium was grown in borate-depleted Luria-Bertani (LB) medium. To remove borate, the media were filtered through a borate anion-specific resin, Amberlite IRA743 (Sigma-Aldrich). Specifically, 500 ml of medium was passed three times through 30 ml of resin and the column was regenerated between each passage according to a method described previously (Bennett et al., 1999). Following filtration, the pH of the medium was adjusted using KOH made with borate-depleted water. For all experiments involving borate-depleted reagents, only plastic supplies were used. To test the effect of boron on the bioluminescence and lsr-lacZ assays, boric acid was added to the borate-depleted media to a final concentration of 5 mM.
V. harveyi MM32 was grown 14 hr in borate-depleted AB at 30° C. with aeration and subsequently diluted 1:5,000 into fresh borate-depleted AB medium in the presence or absence of 5 mM boric acid. 10% autoinducer samples (v/v) were added to the diluted cells and light production was measured hourly in a Wallac Model 1450 Microbeta Plus liquid scintillation counter. […] Bioluminescence is reported as the light produced by the cells divided by the background obtained in medium alone.
(§2) Ligands were released from LsrB and LuxP as described above. All ligand concentrations were estimated by ^11B-NMR in NMR buffer supplemented with 5 mM boric acid; the area of the boric acid peak served as an internal concentration standard.
To directly examine the influence of borate on AI-2-dependent signaling in V. harveyi and S. typhimurium, borate-depleted medium was prepared. AI-2 responses (bioluminescence in V. harveyi, lsr operon induction in S. typhimurium) were measured both with and without added boric acid. In this experiment, V. harveyi strain, MM32 was used because this strain lacks the LuxS enzyme needed to biosynthesize DPD and thus produces no endogenous AI-2 signal. This strain also has the AI-1 pathway inactivated. Bioluminescence was measured following addition of enzymatically synthesized DPD or, alternatively, ligand released from either LsrB or LuxP.

[2] = system: lsr operon in S. typhimurium strain MET844 (LuxS−); test: S. typhimurium AI-2 bioassay (lsr-lacZ, β-galactosidase activity, strain MET844); type: cell-based; conditions: for lsr expression (β-galactosidase activity): borate-depleted LB medium, 4 hr, approximately 10 μM DPD and LsrB ligand, 4 μM LuxP ligand
Description: as §1
AI-2-dependent induction of the lsr operon in S. typhimurium was measured by determining the β-galactosidase activity of the lsr-lacZ promoter fusion in S. typhimurium strain MET844. Overnight cultures were grown in borate-depleted LB medium at 37° C. with aeration and were diluted 1:100 into fresh borate-depleted LB medium in the presence or absence of 5 mM boric acid. To the diluted cells (900 μl), 10% (v/v) autoinducer samples were added (100 μl), and cells were grown for 4 hr. Cell lysates were prepared and β-galactosidase activity was measured as described previously (Taga et al., 2003). β-galactosidase units are defined as [(OD420 min^−1×dilution factor)/OD600].
as §2

V. harveyi [3] = conditions: cited from earlier work
[4] = target: T1, S. typhimurium receptor LsrB (Salmonella typhimurium, UniProt Q8ZKQ1); test: X-ray crystal structure of the LsrB:ligand complex; type: binding; conditions: holo-LsrB crystal, 1.3 Å resolution
T1 construct: The final model contains all LsrB residues present in the protein (27-340); GST (N, cleaved yes); made in house; host or cells: E. coli BL21
Source text: Both apo-LsrB and holo-LsrB crystallized by the hanging drop method in 0.1 M Tris-HCl (pH 8.5), 22%-25% PEG 4000 (w/v) in space group P212121. The apo-LsrB crystals initially obtained (a=38.0, b=74.0, c=116.2) were used to seed crystallization in 0.1 M Tris-HCl, pH 8.5, 18%-24% PEG 4000. Crystals were cryoprotected by brief soaks in 0.1 M Tris-HCl, pH 8.5, 20% PEG 4000, 16% (v/v) glycerol and flash frozen in liquid nitrogen. Native crystals diffracted to 1.9 Å and data were collected at 100 K using an R-AXIS-IV image plate detector mounted on a Rigaku 200HB generator. Selenomethionine LsrB crystals were grown and frozen in the same conditions as native crystals. Selenomethionine crystals diffracted to 2.1 Å resolution at NSLS beam line X25, where MAD data were collected using an ADSC Q315 CCD detector. Holo-LsrB crystals (a=37.8, b=76.6, c=109.7) were prepared by addition of approximately 0.25 mM in vitro LuxS reaction product (Schauder et aL, 2001) to the native LsrB crystallization conditions, giving a DPD:LsrB molar ratio of slightly over 1:1. […]
To identify the LsrB ligand, LsrB was crystallized in the presence of DPD and the other products generated by incubating SAH with recombinant Pfs and LuxS enzymes as previously described (Schauder et al., 2001) (FIG. 1A). The structure was determined by molecular replacement and refined to 1.3 Å resolution (Table 1). […]

V. harveyi receptor LuxP = V. harveyi receptor LuxP (Vibrio harveyi, UniProt P54300); conditions: Chen et al., 2002; cited from earlier work
S. typhimurium = system: S. typhimurium
Description: as §1

V. harveyi [5] = conditions: presence or absence of 5 mM boric acid; AB medium
Description: as §1

[6] = borate-depleted AB medium plus 5 mM boric acid
[7] = 5 mM boric acid added to borate-depleted medium

Chain of V. harveyi receptor LuxP (P54300 24-365): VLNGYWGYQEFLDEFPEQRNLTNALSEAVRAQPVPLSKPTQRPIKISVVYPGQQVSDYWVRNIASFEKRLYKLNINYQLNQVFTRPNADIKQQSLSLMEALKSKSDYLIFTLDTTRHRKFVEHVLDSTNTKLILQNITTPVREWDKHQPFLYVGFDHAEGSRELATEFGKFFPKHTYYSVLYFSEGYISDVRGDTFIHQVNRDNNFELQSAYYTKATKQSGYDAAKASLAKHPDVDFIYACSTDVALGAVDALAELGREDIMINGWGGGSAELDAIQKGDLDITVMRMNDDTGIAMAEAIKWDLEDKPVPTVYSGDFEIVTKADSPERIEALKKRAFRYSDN

## CC(=O)C(=O)C(O)CO (centres unmarked) [DPD, 4,5-dihydroxy-2,3-pentanedione]
[1]; [6]
  light production: stimulate light production
[1]; borate-depleted AB medium
  light production: No light was produced
[1]; in the presence of 5 mM borate, 6-8 hr incubation
  DPD final concentration inducing a linear response in light production: 0.1 to 1 nM
[2]
  lsr expression (β-galactosidase activity): induces lsr expression
V. harveyi [3]; chemically synthesized DPD, only in the presence of boric acid (Meijler et al., 2004)
  bioluminescence in V. harveyi: induces bioluminescence

## C[C@@]1(O)OC[C@H](O)C1(O)O [LsrB ligand]
[1]; [6]
  light production: stimulate light production
[1]; borate-depleted AB medium
  light production: No light was produced
[2]
  lsr expression (β-galactosidase activity): induces lsr expression

## C[C@]12OC[C@H](O)[C@@]1(O)O[B-](O)(O)O2 [LuxP ligand]
[1]; borate-depleted AB medium
  light production: failed to stimulate light production
[2]
  lsr expression (β-galactosidase activity): induces lsr expression

## C[C@@]1(O)OC[C@H](O)C1(O)O [R-THMF, (2R,4S)-2-methyl-2,3,3,4-tetrahydroxytetrahydrofuran]
[4]
  binding to LsrB: binds

## CC12OCC(O)C1(O)O[B-](O)(O)O2 [S-THMF-borate, α-L-glycero-1-dehydro-3-hydro-penta-2,3-diulo-2,5-furanosyl-2,3-cyclic borate]
V. harveyi receptor LuxP
  binding to LuxP: binds

## OB(O)O [boric acid]
[1]; [7]
  effect of boric acid on the ability of DPD or either receptor's ligand to activate the V. harveyi assay: strongly enhances
[2]; [7]
  effect of boric acid on the ability of DPD or either receptor's ligand to activate the S. typhimurium assay: inhibits
S. typhimurium
  effect on growth: no effect
V. harveyi [5]
  effect on growth: no effect

## N[C@@H](CCS)C(=O)O [homocysteine]
V. harveyi [3]; product of the LuxS reaction
  autoinducer activity: no autoinducer activity
